Test system: Canis familiaris
Assay: Inhibition of gastric acid secretion in dogs stimulated by gastrin tetrapeptide when administered perorally
Type: functional
Details: Canis lupus familiaris, Stomach, po

## [2H]C([2H])([2H])c1cc(C)nc(N(CCN(C(C)C)C(C)C)C(=O)N(C)C)c1
  ED50: 7.26 µmol/kg

## Cc1cc(CO)nc(N(CCN(C(C)C)C(C)C)C(=O)N(C)C)c1
  ED50: 29.4 µmol/kg

## Cc1cc(CO)cc(N(CCN(C(C)C)C(C)C)C(=O)N(C)C)n1
  ED50: 23.3 µmol/kg

## Cc1cc(C)nc(N(CCN(C(C)C)C(C)C)C(=O)N(C)C)c1
  ED50: 15.3 µmol/kg

## CC(C)N(CCN(C(=O)N(C)C)c1cc(C(F)(F)F)cc(C(F)(F)F)n1)C(C)C
  ED50: 43.9 µmol/kg

## CN/C(=N\CCSCc1nc[nH]c1C)NC#N [CIMETIDINE]
  ED50: 14.3 µmol/kg
